Common to all, as to conditions: Compound concentration 10.0 uM
For assay [1], the target named is Sodium-dependent serotonin transporter (Homo sapiens) (UniProt P31645). As to the kind of experiment: Transporter, Serotonin (5-Hydroxytryptamine) (SERT) Eurofins Panlabs panel.
Assay [2] concerns the target Beta-2 adrenergic receptor (Homo sapiens) (UniProt P07550). Kind of assay: Adrenergic beta2 Eurofins Panlabs panel.
The target in assay [3] is GABA-A receptor; anion channel (Rattus norvegicus) (UniProt O09028+P15431+P18506+P18508+P19969+P20236+P23574+P23576+P28471+P28473+P30191+P62813+P63079+P63138+Q91ZM7+Q9ES14). As to the kind of experiment: GABAA, Chloride Channel, TBOB Eurofins Panlabs panel. Format: protein-complex assay.
For assay [4], the target named is T1, D(4) dopamine receptor (Homo sapiens) (UniProt P21917).
T1 sequence (whole entry): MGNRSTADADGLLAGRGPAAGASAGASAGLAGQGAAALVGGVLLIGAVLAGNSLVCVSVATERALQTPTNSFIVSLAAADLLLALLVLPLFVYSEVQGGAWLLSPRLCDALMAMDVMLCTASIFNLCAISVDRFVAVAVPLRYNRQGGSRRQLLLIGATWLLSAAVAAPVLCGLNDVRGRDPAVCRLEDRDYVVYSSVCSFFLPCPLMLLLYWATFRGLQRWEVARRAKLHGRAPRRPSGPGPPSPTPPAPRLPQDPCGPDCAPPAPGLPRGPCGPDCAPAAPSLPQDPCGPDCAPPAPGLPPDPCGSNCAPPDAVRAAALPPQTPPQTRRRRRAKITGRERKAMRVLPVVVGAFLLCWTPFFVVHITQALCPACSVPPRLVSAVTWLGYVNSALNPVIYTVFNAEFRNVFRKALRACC
Kind of assay: Dopamine D4.2 Eurofins Panlabs panel.

Inhibition data for 1 compound are collected here from ChEMBL document CHEMBL5303765, “Data for DCP probe BAY-7081” (2023).

Chain of Beta-2 adrenergic receptor (Homo sapiens) (P07550 whole entry, looked up): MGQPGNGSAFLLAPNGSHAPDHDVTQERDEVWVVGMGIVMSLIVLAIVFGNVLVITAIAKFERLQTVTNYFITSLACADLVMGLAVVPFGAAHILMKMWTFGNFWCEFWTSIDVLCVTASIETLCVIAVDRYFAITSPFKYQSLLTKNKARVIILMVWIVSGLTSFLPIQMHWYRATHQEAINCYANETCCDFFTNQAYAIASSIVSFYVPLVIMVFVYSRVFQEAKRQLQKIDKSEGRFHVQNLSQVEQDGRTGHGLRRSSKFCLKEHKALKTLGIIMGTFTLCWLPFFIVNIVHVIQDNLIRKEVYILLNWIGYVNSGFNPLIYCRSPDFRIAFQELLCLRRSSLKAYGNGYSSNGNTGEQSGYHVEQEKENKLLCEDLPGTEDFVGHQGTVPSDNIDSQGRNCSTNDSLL
Chain of Sodium-dependent serotonin transporter (Homo sapiens) (P31645 whole entry, looked up): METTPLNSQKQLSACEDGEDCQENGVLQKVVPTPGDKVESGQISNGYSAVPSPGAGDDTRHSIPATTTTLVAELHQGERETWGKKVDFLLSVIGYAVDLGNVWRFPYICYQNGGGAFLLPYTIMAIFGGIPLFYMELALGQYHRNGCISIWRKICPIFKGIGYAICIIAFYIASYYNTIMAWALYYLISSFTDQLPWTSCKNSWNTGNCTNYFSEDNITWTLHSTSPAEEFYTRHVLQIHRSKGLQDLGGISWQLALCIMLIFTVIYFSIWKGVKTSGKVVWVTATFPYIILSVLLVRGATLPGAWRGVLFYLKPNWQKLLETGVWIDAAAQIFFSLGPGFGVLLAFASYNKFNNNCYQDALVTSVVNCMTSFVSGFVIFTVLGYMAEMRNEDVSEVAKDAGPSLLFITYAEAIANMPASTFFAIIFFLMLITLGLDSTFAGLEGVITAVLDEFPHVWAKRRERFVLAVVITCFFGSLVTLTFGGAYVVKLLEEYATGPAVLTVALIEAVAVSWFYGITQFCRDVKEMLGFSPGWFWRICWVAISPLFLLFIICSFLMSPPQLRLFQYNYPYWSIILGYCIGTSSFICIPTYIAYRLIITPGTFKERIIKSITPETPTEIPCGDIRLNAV

One may read the inhibition as the drop in the measured response relative to a control, in per cent. Consider `CCC[C@H]1CNCc2c1[nH]c(=O)c(C#N)c2N1CCC2(CC1)CC2`, for which the inhibition in assay [1] was 3.5%; in assay [2], -6%; in assay [3], 4%; in assay [4], 2%.
